Laboratory results published in ChEMBL document CHEMBL5321275, “Discovery, Optimization, and Evaluation of Novel N-(Benzimidazol-5-yl)-1,3,4-thiadiazol-2-amine Analogues as Potent STAT3 Inhibitors for Cancer Treatment” (J Med Chem, 2023).

Columns and labels:
[1] = Inhibition of IL-6/JAK/STAT3 signalling pathway in HEK-Blue IL-6 cells incubated for 16 hrs by QUANTI-blue assay; assay type: cell-based; settings: Homo sapiens, HEK-Blue IL-6, 16 h
HEK-Blue IL-6 = test: Inhibition of IL-6/JAK/STAT3 signalling pathway in HEK-Blue IL-6 cells at 10 uM incubated for 16 hrs by QUANTI-blue assay relative to control; assay type: cell-based; settings: Homo sapiens
DU-145 [2] = test: Antiproliferative activity against human DU-145 cells assessed as inhibition of cell growth measured after 96 hrs by MTT assay; assay type: functional, cell-based; settings: DU-145, 96 h
MDA-MB-231 [3] = test: Antiproliferative activity against human MDA-MB-231 cells assessed as inhibition of cell growth at 10 uM measured after 96 hrs by MTT assay relative to control; assay type: functional
DU-145 [4] = test: Antiproliferative activity against human DU-145 cells assessed as inhibition of cell growth at 10 uM measured after 96 hrs by MTT assay relative to control; assay type: functional
MDA-MB-231 [5] = test: Antiproliferative activity against human MDA-MB-231 cells assessed as inhibition of cell growth measured after 96 hrs by MTT assay; assay type: functional, cell-based; settings: MDA-MB-231, 96 h

IC50 [1] [µM]	IC50 (DU-145 [2]) [µM]	IC50 (MDA-MB-231 [5]) [µM]	Compound	inhibition (HEK-Blue IL-6) [%]	inhibition at 10 µM (MDA-MB-231 [3]) [%]	inhibition at 10 µM (DU-145 [4]) [%]
> 10	–	–	CCCn1c(-c2cccc(F)c2)nc2cc(Nc3nnc(-c4cccc(C(F)(F)F)c4)s3)c(F)cc21	20.2	–	–
1.99	9.17	5.92	CN1CCN(c2cc3c(cc2Nc2nnc(-c4ccccc4)s2)nc(-c2ccccc2)n3C2CC2)CC1	78.1	83.3	47
3.51	> 10	> 10	CCCCn1c(-c2ccc(F)cc2)nc2cc(Nc3nnc(-c4ccccc4)s3)c(N3CCN(C)CC3)cc21	80.7	-14.4	-9.69
2.23	5.66	3.98	CN1CCN(c2cc3c(cc2Nc2nnc(-c4cccc(C(F)(F)F)c4)s2)nc(-c2ccc(F)cc2)n3C2CC2)CC1	100	94.1	64.6
3.92	–	–	Fc1cc2c(cc1Nc1nnc(-c3ccccc3F)s1)nc(-c1ccccc1F)n2C1CC1	63.6	–	–
–	> 10	> 10	Fc1ccc(-c2nc3cc(Nc4nnc(-c5cccc(C(F)(F)F)c5)s4)c(F)cc3n2C2CC2)cc1	–	8.11	-3.68
> 10	–	–	Fc1ccc(-c2nc3cc(Nc4nnc(-c5ccccc5)s4)c(N4CCN(c5ccccc5)CC4)cc3n2C2CC2)cc1	21.3	–	–
2.96	> 10	> 10	CN1CCN(c2cc3c(cc2Nc2nnc(-c4ccccc4)s2)nc(-c2ccc(Cl)cc2)n3C2CC2)CC1	75.8	6.84	-4.82
3.37	> 10	> 10	Fc1ccc(-c2nc3cc(Nc4nnc(-c5cccc(Cl)c5)s4)c(F)cc3n2C2CC2)cc1	67.8	-2.05	-7.76
> 10	–	–	CN1CCN(c2cc3c(cc2Nc2nnc(-c4ccccc4)s2)nc(-c2cccnc2)n3C2CC2)CC1	25.5	–	–
6.27	–	–	CN1CCN(c2cc3c(cc2Nc2nnc(-c4ccccc4)s2)nc(-c2ccc(F)cc2)n3C2CCC2)CC1	64.7	–	–
1.53	> 10	> 10	Fc1cc2c(cc1Nc1nnc(-c3cccc(C(F)(F)F)c3)s1)nc(-c1cccc(C(F)(F)F)c1)n2C1CC1	72.8	4.54	-0.72
> 10	–	–	Fc1ccc(-c2nc3cc(Nc4nnc(-c5ccc(Cl)c(C(F)(F)F)c5)s4)c(F)cc3n2C2CC2)cc1	34.2	–	–
0.41	> 10	> 10	Fc1cccc(-c2nc3cc(Nc4nnc(-c5cccc(C(F)(F)F)c5)s4)c(F)cc3n2C2CC2)c1	90	5.54	-7.06
3.96	> 10	> 80	CCCCCn1c(-c2ccc(F)cc2)nc2cc(Nc3nnc(-c4ccccc4)s3)c(N3CCN(C)CC3)cc21	83.2	-7.99	-8.3
4.84	> 10	> 10	Fc1ccc(-c2nc3cc(Nc4nnc(-c5ccc(C(F)(F)F)cc5)s4)c(F)cc3n2C2CC2)cc1	64.1	-2.76	-25
> 10	–	–	CC(C)(C)c1ccc(-c2nnc(Nc3cc4nc(-c5ccc(F)cc5)n(C5CC5)c4cc3F)s2)cc1	36.1	–	–
3.29	> 10	> 10	CN(C)C1CCN(c2cc3c(cc2Nc2nnc(-c4ccccc4)s2)nc(-c2ccc(F)cc2)n3C2CC2)CC1	69.2	19.5	-2.92
> 10	9.73	6.63	CCCn1c(-c2ccc(F)cc2)nc2cc(Nc3nnc(-c4cccc(C(F)(F)F)c4)s3)c(N3CCN(C)CC3)cc21	5.21	90.1	55.6
> 10	–	–	Fc1ccc(Oc2cc3c(cc2Nc2nnc(-c4cccc(C(F)(F)F)c4)s2)nc(-c2ccc(F)cc2)n3C2CC2)cc1	6.34	–	–
5.79	–	–	Fc1ccc(-c2nc3cc(Nc4nnc(-c5ccccc5)s4)ccc3n2C2CC2)cc1	66.1	–	–
> 10	–	–	Fc1ccc(-c2nc3cc(Nc4nnc(-c5cccc(C(F)(F)F)c5)s4)ccc3n2C2CC2)cc1	34.5	–	–
7.88	> 10	> 10	CC(C)c1ccc(-c2nnc(Nc3cc4nc(-c5ccc(F)cc5)n(C5CC5)c4cc3F)s2)cc1	61.9	1.85	17.9

IC50 [1] [µM]	IC50 (DU-145 [2]) [µM]	IC50 (MDA-MB-231 [5]) [µM]	Compound	inhibition (HEK-Blue IL-6) [%]	inhibition at 10 µM (MDA-MB-231 [3]) [%]	inhibition at 10 µM (DU-145 [4]) [%]
6.42	–	–	COCCn1c(-c2ccc(F)cc2)nc2cc(Nc3nnc(-c4ccccc4)s3)c(N3CCN(C)CC3)cc21	65.4	–	–
> 10	–	–	CCCn1c(-c2cccc(F)c2)nc2cc(Nc3nnc(-c4ccc(C(F)(F)F)cc4)s3)c(F)cc21	54.6	–	–
7.56	–	–	CN1CCN(c2cc3c(cc2Nc2nnc(-c4ccccc4)s2)nc(-c2ccccc2F)n3C2CC2)CC1	63.3	–	–
> 10	–	–	CCCn1c(-c2cccc(F)c2)nc2cc(Nc3nnc(-c4ccccc4C(F)(F)F)s3)c(F)cc21	46.2	–	–
> 10	–	–	Fc1ccc(-c2nc3cc(Nc4nnc(-c5ccc(C(F)(F)F)cc5)s4)c(N4CCOCC4)cc3n2C2CC2)cc1	0.29	–	–
> 10	–	–	CN(C)CCn1c(-c2ccc(F)cc2)nc2cc(Nc3nnc(-c4ccccc4)s3)c(N3CCN(C)CC3)cc21	2.11	–	–
1.09	> 10	> 10	COc1cc(-c2nnc(Nc3cc4nc(-c5ccc(F)cc5)n(C5CC5)c4cc3F)s2)cc(OC)c1OC	83.5	-11.5	-10.3
> 10	–	–	Fc1cc2c(cc1Nc1nnc(-c3cccc(C(F)(F)F)c3)s1)nc(-c1ccc(C(F)(F)F)cc1)n2C1CC1	29.6	–	–
0.6	> 10	> 10	Fc1ccc(-c2nc3cc(Nc4nnc(-c5ccccc5C(F)(F)F)s4)c(F)cc3n2C2CC2)cc1	99.9	3.62	14.7
> 10	–	–	Fc1ccc(-c2nc3cc(Nc4nnc(-c5ccc(C(F)(F)F)cc5)s4)ccc3n2C2CC2)cc1	8.71	–	–
3.92	> 10	8.55	CC(C)Cn1c(-c2ccc(F)cc2)nc2cc(Nc3nnc(-c4ccccc4)s3)c(N3CCN(C)CC3)cc21	77.4	62.2	26.7
> 10	–	–	Fc1cc2c(cc1Nc1nnc(-c3cccc(C(F)(F)F)c3)s1)nc(-c1ccccc1)n2C1CC1	25.6	–	–
0.52	> 10	> 10	CCOc1cc2c(cc1Nc1nnc(-c3cccc(C#N)c3)s1)nc(-c1ccc(F)cc1)n2C1CC1	92.5	-5.91	14
1.32	4.68	3.34	CCCn1c(-c2ccc(F)cc2)nc2cc(Nc3nnc(-c4ccccc4)s3)c(N3CCN(C)CC3)cc21	105	93.4	80.7
4.51	–	–	CN1CCN(c2cc3c(cc2Nc2nnc(-c4ccccc4)s2)nc(-c2cccc(F)c2)n3C2CC2)CC1	56.6	–	–
5.28	> 10	> 10	CN1CCN(c2cc3c(cc2Nc2nnc(-c4ccccc4)s2)nc(-c2ccc(F)cc2)n3C2CCCC2)CC1	77.5	-5.02	-26.6
4.01	2.17	0.96	CN1CCN(c2cc3c(cc2Nc2nnc(-c4cccc(C#N)c4)s2)nc(-c2ccc(F)cc2)n3C2CC2)CC1	83.7	92.7	85.9
3.52	9.37	6.47	CN1CCN(c2cc3c(cc2Nc2nnc(-c4cccc(F)c4)s2)nc(-c2ccc(F)cc2)n3C2CC2)CC1	82.1	91.9	56.4
2.42	4.04	3.21	CC(C)N1CCN(c2cc3c(cc2Nc2nnc(-c4ccccc4)s2)nc(-c2ccc(F)cc2)n3C2CC2)CC1	77.1	90.1	79.9
3.12	> 10	> 10	CC(C)n1c(-c2ccc(F)cc2)nc2cc(Nc3nnc(-c4ccccc4)s3)c(N3CCN(C)CC3)cc21	71.4	0.1	-4.96
3.28	6.73	3.83	CCCn1c(-c2ccc(F)cc2)nc2cc(Nc3nnc(-c4ccc(C(F)(F)F)cc4)s3)c(N3CCN(C)CC3)cc21	90.9	93.8	64.6
> 10	–	–	CN1CCN(c2cc3c(cc2Nc2nnc(-c4cccnc4)s2)nc(-c2ccc(F)cc2)n3C2CC2)CC1	-0.36	–	–
2.21	1.84	1.66	O=[N+]([O-])c1ccc2c(c1)S(=O)(=O)C=C2	107	92.2	79.6
